In patent publication US10428080B2, “TBK/IKK inhibitor compounds and uses thereof” (Merck Patent GmbH, priority 2015, dated 2019):
Structures can show the parent of a compound that is named as a salt. Where two headings read alike, the source gives them in different places.

What was measured:
IKKε = target: T1, IKKε (Homo sapiens, UniProt Q14164); experiment: IKKe Biochemical Assay; details: read-out: IKKε IC50
T1 sequence (Q14164 1-716): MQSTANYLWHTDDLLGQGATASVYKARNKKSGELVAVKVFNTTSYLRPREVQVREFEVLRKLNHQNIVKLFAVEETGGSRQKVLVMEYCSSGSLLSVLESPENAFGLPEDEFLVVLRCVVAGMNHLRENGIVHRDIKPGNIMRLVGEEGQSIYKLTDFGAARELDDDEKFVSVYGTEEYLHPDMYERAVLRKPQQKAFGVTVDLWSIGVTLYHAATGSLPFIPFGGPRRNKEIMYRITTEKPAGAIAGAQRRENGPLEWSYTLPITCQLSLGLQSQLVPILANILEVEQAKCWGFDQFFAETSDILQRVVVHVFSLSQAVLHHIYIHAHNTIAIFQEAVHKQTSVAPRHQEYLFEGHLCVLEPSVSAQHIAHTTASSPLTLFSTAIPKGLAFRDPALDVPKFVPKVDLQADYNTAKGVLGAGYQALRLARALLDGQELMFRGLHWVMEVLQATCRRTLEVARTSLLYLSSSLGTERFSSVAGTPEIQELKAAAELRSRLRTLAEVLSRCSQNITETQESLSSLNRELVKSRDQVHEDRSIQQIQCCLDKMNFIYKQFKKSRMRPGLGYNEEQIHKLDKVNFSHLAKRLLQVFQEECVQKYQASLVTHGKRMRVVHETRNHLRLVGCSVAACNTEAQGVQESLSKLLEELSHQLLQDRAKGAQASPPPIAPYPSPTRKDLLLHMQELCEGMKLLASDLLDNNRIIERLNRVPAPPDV
Procedure, shortened: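 Recombinant IKKε and substrate were incubated with compound (10-point 1:4 series, top 30 uM final, 1% DMSO) for 90 min at 25° C, then stopped. Substrate-to-product conversion was read by LabChip microfluidic mobility shift; 10 uM staurosporine served as full-inhibition wells.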

[1] = tested on: phosphorylation of the IRF-3 protein in MDA-MB-468 cells; experiment: pIRF3 immunocytochemistry cell based assay; details: Homo sapiens
Procedure, shortened: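 MDA-MB-468 cells got compounds (10-point, 3-fold from 10 uM) for 1 h at 37 °C, then 10 ug/ml Poly(I:C) for 2 h. Fixed, permeabilized cells were immunostained for pIRF3 with AlexaFluor488 and counterstained with PI. % phosphorylation was read by laser scanning cytometry, and IC50 curves were fitted.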

TBK1 = target: T2, TBK1 (Homo sapiens, UniProt Q9UHD2); experiment: TBK Biochemical Assay; details: read-out: TBK1 IC50
T2 sequence (Q9UHD2 1-729): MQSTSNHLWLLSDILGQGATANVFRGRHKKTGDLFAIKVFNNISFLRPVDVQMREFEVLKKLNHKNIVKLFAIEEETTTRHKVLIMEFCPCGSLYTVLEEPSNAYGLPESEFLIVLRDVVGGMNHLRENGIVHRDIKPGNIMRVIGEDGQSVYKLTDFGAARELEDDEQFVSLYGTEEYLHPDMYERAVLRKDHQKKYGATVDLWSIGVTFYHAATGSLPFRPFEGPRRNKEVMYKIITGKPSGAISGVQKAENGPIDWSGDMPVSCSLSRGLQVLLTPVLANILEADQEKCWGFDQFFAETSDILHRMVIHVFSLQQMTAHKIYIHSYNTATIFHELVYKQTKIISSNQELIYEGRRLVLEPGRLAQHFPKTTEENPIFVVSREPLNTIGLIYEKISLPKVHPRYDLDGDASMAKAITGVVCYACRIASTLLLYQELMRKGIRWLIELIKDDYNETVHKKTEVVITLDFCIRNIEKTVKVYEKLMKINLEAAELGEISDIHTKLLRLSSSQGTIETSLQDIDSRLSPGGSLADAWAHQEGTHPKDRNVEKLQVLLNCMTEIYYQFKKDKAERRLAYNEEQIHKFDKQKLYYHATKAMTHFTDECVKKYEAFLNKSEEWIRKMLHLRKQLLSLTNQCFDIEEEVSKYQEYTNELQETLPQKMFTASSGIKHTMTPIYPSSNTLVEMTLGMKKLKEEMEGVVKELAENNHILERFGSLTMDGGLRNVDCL
Procedure, shortened: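 TBK1 enzyme and substrate incubated with compounds (10-point 1:4 dilution, top 30 uM final, 1% DMSO) for 90 min at 25° C, then stopped. Substrate/product peaks read by microfluidic mobility-shift (Caliper LabChip); 10 uM staurosporine as full-inhibition control.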

[2] = MDA-MB-468 cells, Poly(I:C) stimulation, read-out: pIRF3 IC50
[3] = MDA-MB-468, read-out: pIRF3 IC50

Row | Compound | IC50 (IKKε) | IC50 [1, 2] | IC50 (TBK1) | IC50 [1, 3]
1 | COc1cc(C(=O)NC2CC(N3CCCC3)C2)ccc1-c1cc2nccc(-c3ccc(OC4CCOCC4)c(C#N)c3)c2o1 (stereo not drawn) [Compound 371, 4-(7-(3-cyano-4-(tetrahydro-2H-pyran-4-yloxy)phenyl)furo[3,2-b]pyridin-2-yl)-3-methoxy-N-(3-(pyrrolidin-1-yl)cyclobutyl)benzamide] | < 100 nM | – | < 100 nM | 100 to 1000 nM
2 | COc1cc(C(=O)N[C@@]23C[C@@H]2CN(C(C)C)C3)ccc1-c1cc2nccc(-c3ccc(OC4CCOCC4)c(C#N)c3)c2o1 [Compound 372, 4-[7-[3-cyano-4-(oxan-4-yloxy)phenyl]furo[3,2-b]pyridin-2-yl]-3-methoxy-N-[(1S,5R)-3-(propan-2-yl)-3-azabicyclo[3.1.0]hexan-1-yl]benzamide] | < 100 nM | – | < 100 nM | 100 to 1000 nM
3 | COc1cc(C(=O)N(C)C)ncc1-c1cc2nccc(-c3ccc(OC4CCOCC4)c(C#N)n3)c2o1 [Compound 387, 5-[7-[6-cyano-5-(oxan-4-yloxy)pyridin-2-yl]furo[3,2-b]pyridin-2-yl]-4-methoxy-N,N-dimethylpyridine-2-carboxamide hydrochloride] | < 100 nM | 100 to 1000 nM | < 100 nM | –
4 | COc1cc(C(=O)N(C)C)ncc1-c1cc2nccc(-c3cnc(OC4CCOCC4)c(C#N)c3)c2o1 [Compound 388, 5-[7-[5-cyano-6-(oxan-4-yloxy)pyridin-3-yl]furo[3,2-b]pyridin-2-yl]-4-methoxy-N,N-dimethylpyridine-2-carboxamide] | < 100 nM | 100 to 1000 nM | < 100 nM | –
5 | COc1cc(-c2cc3nccc(-c4ccc(OC5CCOCC5)c(C#N)c4)c3o2)ncc1C(=O)N(C)C [Compound 391, 6-[7-[3-cyano-4-(oxan-4-yloxy)phenyl]furo[3,2-b]pyridin-2-yl]-4-methoxy-N,N-dimethylpyridine-3-carboxamide] | < 100 nM | – | 100 to 1000 nM | 1000 to 5000 nM
6 | COc1cc(-c2cc3nccc(-c4ccc(OC5CCOCC5)c(C#N)c4)c3o2)cnc1C(=O)N(C)C [Compound 393, 5-[7-[3-cyano-4-(oxan-4-yloxy)phenyl]furo[3,2-b]pyridin-2-yl]-3-methoxy-N,N-dimethylpyridine-2-carboxamide] | < 100 nM | 1000 to 5000 nM | 100 to 1000 nM | –
7 | COc1cc(-c2cc3nccc(-c4ccc(NC5CCOCC5)c(C#N)c4)c3o2)cnc1C(=O)N(C)C [Compound 394, 5-(7-[3-cyano-4-[(oxan-4-yl)amino]phenyl]furo[3,2-b]pyridin-2-yl)-3-methoxy-N,N-dimethylpyridine-2-carboxamide] | 100 to 1000 nM | 1000 to 5000 nM | 100 to 1000 nM | –
8 | COc1cc(C(=O)N(C)C)nnc1-c1cc2nccc(-c3ccc(OC4CCOCC4)c(C#N)c3)c2o1 [Compound 395, 6-[7-[3-cyano-4-(oxan-4-yloxy)phenyl]furo[3,2-b]pyridin-2-yl]-5-methoxy-N,N-dimethylpyridazine-3-carboxamide] | < 100 nM | 100 to 1000 nM | < 100 nM | –
9 | COc1cc(C(=O)N[C@H]2[C@@H]3C[C@H]2CN(C)C3)cnc1-c1cc2nccc(-c3ccc(OC4CCOCC4)c(C#N)c3)c2o1 [Compound 397, 6-{7-[3-Cyano-4-(tetrahydro-pyran-4-yloxy)-phenyl]-furo[3,2-b]pyridin-2-yl}-5-methoxy-N-((1S,5R,6R)-3-methyl-3-aza-bicyclo[3.10.1]hept-6-yl)-nicotinamide] | < 100 nM | < 100 nM | < 100 nM | –

More lines, main results first:

Row | IC50 (IKKε) | IC50 [1, 2] | IC50 (TBK1) | Compound | IC50 [1, 3]
10 | < 100 nM | 100 to 1000 nM | < 100 nM | COc1cc(C(=O)NC2CN(C(C)C)C2)ccc1-c1cc2nccc(-c3ccc(OC4CCOCC4)c(C#N)c3)c2o1 [Compound 364, 4-(7-(3-cyano-4-(tetrahydro-2H-pyran-4-yloxy)phenyl)furo[3,2-b]pyridin-2-yl)-N-(1-isopropylazetidin-3-yl)-3-methoxybenzamide] | –
11 | < 100 nM | < 100 nM | < 100 nM | COc1cc(C(=O)NC2(C)CCCN(C)C2)ccc1-c1cc2nccc(-c3ccc(OC4CCOCC4)c(C#N)c3)c2o1 (stereo not drawn) [Compound 367, 4-[7-[3-cyano-4-(oxan-4-yloxy)phenyl]furo[3,2-b]pyridin-2-yl]-N-(1,3-dimethylpiperidin-3-yl)-3-methoxybenzamide] | –
12 | < 100 nM | 100 to 1000 nM | < 100 nM | COc1cc(C(=O)NC2(CN(C)C)CCC2)ccc1-c1cc2nccc(-c3ccc(OC4CCOCC4)c(C#N)c3)c2o1 [Compound 368, 4-[7-[3-cyano-4-(oxan-4-yloxy)phenyl]furo[3,2-b]pyridin-2-yl]-N-[1-[(dimethylamino)methyl]cyclobutyl]-3-methoxybenzamide] | –
13 | < 100 nM | 100 to 1000 nM | < 100 nM | COc1cc(C(=O)NC2CCC(=O)NC2C)ccc1-c1cc2nccc(-c3ccc(OC4CCOCC4)c(C#N)c3)c2o1 (stereo not drawn) [Compound 369, 4-[7-[3-cyano-4-(oxan-4-yloxy)phenyl]furo[3,2-b]pyridin-2-yl]-3-methoxy-N-(2-methyl-6-oxopiperidin-3-yl)benzamide] | –
14 | < 100 nM | 100 to 1000 nM | < 100 nM | COc1cc(C(=O)NC2(C)CCN(C)CC2)ccc1-c1cc2nccc(-c3ccc(OC4CCOCC4)c(C#N)c3)c2o1 [Compound 370, 4-[7-[3-cyano-4-(oxan-4-yloxy)phenyl]furo[3,2-b]pyridin-2-yl]-N-(1,4-dimethylpiperidin-4-yl)-3-methoxybenzamide hydrochloride] | –
15 | < 100 nM | < 100 nM | < 100 nM | COc1cc(C(=O)N[C@@H]2CC[C@@H]3CN(C)C[C@@H]32)ccc1-c1cc2nccc(-c3ccc(OC4CCOCC4)c(C#N)c3)c2o1 [Compound 373, N-[(3aR,4R,6aS)-2-methyl-octahydrocyclopenta[c]pyrrol-4-yl]-4-[7-[3-cyano-4-(oxan-4-yloxy)phenyl]furo[3,2-b]pyridin-2-yl]-3-methoxybenzamide] | –
16 | < 100 nM | < 100 nM | < 100 nM | COc1cc(C(=O)N(C)CCO)ncc1-c1cc2nccc(-c3ccc(OC4CCOCC4)c(C#N)n3)c2o1 [Compound 376, 5-[7-[6-cyano-5-(oxan-4-yloxy)pyridin-2-yl]furo[3,2-b]pyridin-2-yl]-N-(2-hydroxyethyl)-4-methoxy-N-methylpyridine-2-carboxamide] | –
17 | < 100 nM | < 100 nM | < 100 nM | COc1cc(C(=O)N(C)CCO)ncc1-c1cc2nccc(-c3ccc(N4CC[C@H](F)C4)c(C#N)c3)c2o1 [Compound 379, 5-{7-[3-Cyano-4-((S)-3-fluoro-pyrrolidin-1-yl)-phenyl]-furo[3,2-b]pyridin-2-yl}-4-methoxy-pyridine-2-carboxylic acid (2-hydroxy-ethyl)-methyl-amide] | –
18 | < 100 nM | < 100 nM | < 100 nM | COc1cc(C(=O)N(C)CCO)ncc1-c1cc2nccc(-c3ccc(N4CC[C@@H](F)C4)c(C#N)c3)c2o1 [Compound 380, 5-{7-[3-Cyano-4-((R)-3-fluoro-pyrrolidin-1-yl)-phenyl]-furo[3,2-b]pyridin-2-yl}-4-methoxy-pyridine-2-carboxylic acid (2-hydroxy-ethyl)-methyl-amide] | –
